Series [1] has as its system MV4;11-Control cell line. The experiment in a line: CellTiter-Glo cell viability assay, MV4;11-Control. It is filed as cell-based. Set-up: unit of the concentration uncertain. As to conditions: second set of experiments. Here is the method:
(§1) The influence of efflux pumps on the antitumor activity of the test compounds at steady state (more clinically relevant) were evaluated using P-gp-transfected AML cells (MV4;11 cells) in 6-day viability assays.
(§2) A P-gp-expressing KMT2A(MLL)-rearranged cell line model was developed by lentiviral transduction of the MV4;11 parental cell line and then selection for either Luciferase ORF (MV4;11-Control) or P-gp ORF (MV4;11-PGP).
(§3) […] Cell viability was measured by CellTiter-Glo® Luminescent Cell Viability Assay (CTG assay, Promega Corp.) and % Viability was quantified by normalizing to the luminescence values of DMSO-only treated cells. The dose-response curves and IC50's were calculated using GraphPad Prism 9.4.1.
(§4) The measured luminescence in the live cells of the MV4;11-Control and MV4;11-PGP cells that were treated with Compound I only (+DMSO), Compound I+posaconazole […], and valspodar (1 mM) are shown in FIGS. 5A and 5B.
(§5) In a second set of experiments, MV4;11-Control and MV4;11-PGP cell lines were treated as described above with five menin inhibitors, including Compound I, SNDX-5613, Compound A, Compound B, and Compound C, at concentrations ranging from 0 to 1000 nM. All tested compounds dropped in potency due to the P-gp expression as shown in FIGS. 6A-6J and in Tables 5 and 6 (indicated by increased IC50 values between “MV4;11-Control (Compound+DMSO)” and “MV4;11-PGP (Compound+DMSO)” entries).
(Cellular ATP, detected with luciferase, serves as a proxy for viable cell number.)

The test system of series [2] is MV4;11-PGP cell line. The experiment in a line: CellTiter-Glo cell viability assay, MV4;11-PGP. The series is classed as cell-based. Details: unit of the concentration uncertain. As to conditions: second set of experiments. Here is the method:
as §1, §2, §3, §4, §5

In series [3] the target is T1, P-gp (Homo sapiens, UniProt P08183). The experiment in a line: P-gp substrate assessment using MDR1-MDCK monolayers (Example 1, +/- valspodar). Conditions: 12-well plates, QC of MDR1-MDCK cell batch. It is filed as in vitro ADME. Set-up: expressed in transfected cells; host or cells: MDR1-MDCK cells. On the procedure:
MDR1-MDCK cell monolayers were grown to confluence on collagen-coated, microporous membranes in 12-well assay plates. Details of the plates and their certification are shown below. The permeability assay buffer was Hanks' balanced salt solution (HBSS) containing 10 mM HEPES and 15 mM glucose at a pH of 7.4. The buffer in the receiver chamber also contained 1% bovine serum albumin. The dosing solution concentration was 5 μM of test article in the assay buffer+/−1 μM valspodar. Cells were first pre-incubated for 30 min with HBSS containing+/−1 μM valspodar. Cell monolayers were dosed on the apical side (A-to-B) or basolateral side (B-to-A) and incubated at 37° C. with 5% CO2 in a humidified incubator. Samples were taken from the donor and receiver chambers at 120 min. Each determination was performed in duplicate. The flux of lucifer yellow was also measured post-experimentally for each monolayer to ensure no damage was inflicted to the cell monolayers during the flux period. All samples were assayed by LC-MS/MS using electrospray ionization. Liquid chromatography conditions are summarized as follows: Column: Thermo BDS Hypersil C18 30×2.1 mm, […], with guard column; M.P. Buffer: 25 mM ammonium formate buffer, pH 3.5; Aqueous Reservoir (A): 90% water, 10% buffer; Organic Reservoir (B): 90% acetonitrile, 10% buffer; Flow Rate: 350 μL/minute; Total run time: 3.5 min; Autosampler: 10 μL injection volume; Autosampler wash: water/methanol/2-propanol: 1/1/1; with 0.2% formic acid.
The apparent permeability (Papp) and percent recovery were calculated as follows: […]
where, • dCr/dt is the slope of the cumulative concentration in the receiver compartment versus time in μM s^−1; • Vr is the volume of the receiver compartment in cm^3; • Vd is the volume of the donor compartment in cm^3; • A is the area of the insert (1.13 cm^2 for 12-well); • CA is the average of the nominal dosing concentration and the measured 120 minute donor concentration in μM; • CN is the nominal concentration of the dosing solution in μM; • Cr^final is the cumulative receiver concentration in μM at the end of the incubation period; • Cd^final is the concentration of the donor in μM at the end of the incubation period.
Efflux ratio (ER) is defined as Papp (B-to-A)/Papp (A-to-B).
• ER≥2.0 without valspodar, and reduced by ≥50% with valspodar: Positive • ER≥2.0 without valspodar, and reduced by <50% with valspodar: Negative • ER<2.0 without and with valspodar: Negative

In series [4] the target is T1, P-gp. Description: MDR1-MDCK P-gp Substrate Identification (Example 2, +/- elacridar). As to conditions: MDCK-MDR1, pH 7.4. Here is the method: MDCK epithelial cells stably transfected with the human MDR1 gene (the gene encoding for the efflux protein P-gp) were seeded on a Multiscreen™ plate (Millipore, MA, USA) and formed a confluent monolayer over 4 days prior to the experiment. To verify the MDR1-MDCK cell monolayers were properly formed, aliquots of the cell buffers were analyzed by fluorescence to determine the transport of the impermeable dye Lucifer Yellow. Any deviations from control values are reported.
MDR1-MDCK cells were incubated with these buffers for 2 h, and the receiver side buffer was removed for analysis by LC-MS/MS.
The rate of passage of the test compounds through this cell monolayer barrier from apical to basolateral (A→B) in this bi-directional transport assay was used to determine the apparent permeability coefficient (Papp). Receiver, donor, and dosing solution concentrations were quantified using a calibration curve prepared in transport buffer solution (pH 7.4). Papp is calculated as
where dQ/dt is rate of permeation, C0 is initial concentration of test agent, and A is the area of monolayer (0.11 cm^2). The basolateral to apical (B→A) to apical to basolateral (A→B) apparent permeability coefficient ratio
When RE>2 for a tested compound, the tested compound is a potential substrate for P-gp.
Rantinidine, talinolol, warfarin, and loperamide (±2 μM elacridar) were tested as reference compounds and each was tested at a concentration of 10 μM.

Setting [5] is: 144 h, 0 to 1000 nM, Table 5, read-out: IC50 MV4;11-Control (Compound + DMSO).
[6] abbreviates: 144 h, 0 to 1000 nM, Table 6, read-out: IC50 MV4;11-Control (Compound + DMSO).
Setting [7] is: posaconazole (1.5 (unit uncertain)), Table 5, read-out: IC50 MV4;11-Control (Compound + posaconazole).
The mark [8] stands for this setting: valspodar (1 (unit uncertain)), Table 6, read-out: IC50 MV4;11-Control (Compound + valspodar).
Where [9] appears, read: 144 h, 0 to 1000 nM, Table 5, read-out: IC50 MV4;11-PGP (Compound + DMSO).
[10] abbreviates: 144 h, 0 to 1000 nM, Table 6, read-out: IC50 MV4;11-PGP (Compound + DMSO).
Where [11] appears, read: posaconazole (1.5 (unit uncertain)), Table 5, read-out: IC50 MV4;11-PGP (Compound + posaconazole).
Setting [12] is: valspodar (1 (unit uncertain)), Table 6, read-out: IC50 MV4;11-PGP (Compound + valspodar).

SMILES strings stand for the structures. Read-outs that look alike come from different tables or passages of the source.

T1 sequence (P08183 whole entry): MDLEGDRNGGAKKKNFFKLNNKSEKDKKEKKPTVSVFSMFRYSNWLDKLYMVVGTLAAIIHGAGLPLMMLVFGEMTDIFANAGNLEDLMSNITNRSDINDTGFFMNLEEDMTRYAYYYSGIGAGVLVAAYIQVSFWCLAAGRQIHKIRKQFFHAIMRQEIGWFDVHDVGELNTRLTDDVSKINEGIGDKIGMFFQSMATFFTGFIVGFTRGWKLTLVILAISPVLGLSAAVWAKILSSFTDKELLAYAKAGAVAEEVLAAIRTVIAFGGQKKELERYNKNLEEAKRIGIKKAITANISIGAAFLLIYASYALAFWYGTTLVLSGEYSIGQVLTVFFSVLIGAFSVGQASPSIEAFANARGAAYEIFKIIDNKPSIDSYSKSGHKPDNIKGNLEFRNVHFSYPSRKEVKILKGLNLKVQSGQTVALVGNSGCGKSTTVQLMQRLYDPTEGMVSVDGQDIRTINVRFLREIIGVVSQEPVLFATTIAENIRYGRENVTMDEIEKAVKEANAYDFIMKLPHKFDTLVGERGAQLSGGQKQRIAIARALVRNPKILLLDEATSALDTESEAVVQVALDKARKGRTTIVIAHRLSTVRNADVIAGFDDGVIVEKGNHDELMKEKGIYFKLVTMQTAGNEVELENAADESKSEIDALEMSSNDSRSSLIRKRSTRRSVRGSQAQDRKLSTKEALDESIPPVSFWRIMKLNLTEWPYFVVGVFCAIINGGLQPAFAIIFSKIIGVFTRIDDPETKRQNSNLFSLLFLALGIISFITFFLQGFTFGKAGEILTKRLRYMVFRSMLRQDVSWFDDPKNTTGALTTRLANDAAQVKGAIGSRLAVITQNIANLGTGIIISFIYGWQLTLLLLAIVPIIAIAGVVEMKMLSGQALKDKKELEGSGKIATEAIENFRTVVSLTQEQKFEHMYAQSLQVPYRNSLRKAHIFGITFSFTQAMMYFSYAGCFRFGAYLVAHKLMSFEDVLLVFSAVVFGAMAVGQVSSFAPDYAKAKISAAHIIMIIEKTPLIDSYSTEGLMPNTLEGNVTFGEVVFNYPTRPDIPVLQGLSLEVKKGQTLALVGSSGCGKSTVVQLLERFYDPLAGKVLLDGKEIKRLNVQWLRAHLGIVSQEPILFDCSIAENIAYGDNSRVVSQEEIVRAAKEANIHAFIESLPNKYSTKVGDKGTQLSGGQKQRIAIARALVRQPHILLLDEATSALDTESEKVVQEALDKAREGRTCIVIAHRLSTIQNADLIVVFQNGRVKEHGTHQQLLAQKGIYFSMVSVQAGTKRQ

Turning to `COc1cc(-c2ccc(CN[C@H]3C[C@@H](O)[C@@H](N(C)c4ncnc5sc(CC(F)(F)F)cc45)C3)cc2)nnc1OC` [Compound A], the IC50 amounted to 2.28 nM in series [1] (setting [5]); 2.07 nM in series [1] (setting [6]); 2.01 nM in series [1] (setting [7]); 2.1 nM in series [1] (setting [8]); 22 nM in series [2] (setting [9]); 21.3 nM in series [2] (setting [10]). Besides, the IC50 in series [2] (setting [11]) came out at 4.91 nM; in series [2] (setting [12]), 2.41 nM.
For the molecule `CCN(C(=O)c1cc(F)ccc1Oc1nncnc1N1CCC2(C1)CN([C@H](CCCN(C)CCOC)C(C)C)C2)C(C)C` [Compound B], the concentration for half-maximal inhibition (IC50) stood at 3.32 nM in series [1] (setting [5]); 4.1 nM in series [1] (setting [6]); 2.51 nM in series [1] (setting [7]); 3 nM in series [1] (setting [8]); 108 nM in series [2] (setting [9]); 114 nM in series [2] (setting [10]). Also, the IC50 was 5.91 nM in series [2] (setting [11]) and 3.15 nM in series [2] (setting [12]).
In the case of `C=CC(=O)N[C@@H]1CCCN(Cc2ccnc(C(=O)Nc3ccc(-c4cc5c(N6CCOCC6)ncnc5[nH]4)cc3)c2)C1` [Compound C], the IC50 is 236 nM in series [1] (setting [5]); 267 nM in series [1] (setting [6]); 222 nM in series [1] (setting [7]); 230 nM in series [1] (setting [8]); 716 nM in series [2] (setting [9]); 764 nM in series [2] (setting [10]). In addition, the half-inhibitory concentration (IC50) in series [2] (setting [11]) stood at 349 nM; in series [2] (setting [12]) it was 231 nM.
`C[C@H]1O[C@@H](O[C@H]2[C@@H](O)C[C@H](O[C@H]3[C@@H](O)C[C@H](O[C@H]4CC[C@@]5(C)[C@H](CC[C@@H]6[C@@H]5C[C@@H](O)[C@]5(C)[C@@H](C7=CC(=O)OC7)CC[C@]65O)C4)O[C@@H]3C)O[C@@H]2C)C[C@H](O)[C@@H]1O` [Digoxin]: in series [3], the “B-to-A Papp (cell batch quality control)” value is 17.6 10^−6 cm/s and the “efflux ratio (cell batch quality control)” value came out at 243. Further, the Papp A→B in series [3] (dog, read-out: A-to-B Papp (cell batch quality control)) came out at 0.07 ×10⁻⁶ cm/s.
In series [4], `CN(C)C(=O)C(CCN1CCC(O)(c2ccc(Cl)cc2)CC1)(c1ccccc1)c1ccccc1` [Loperamide] yielded a Papp A→B at 2 h of 0.792 ×10⁻⁶ cm/s and a Papp B→A at 2 h of 61.2 ×10⁻⁶ cm/s.
Regarding `CC(C)NCC(O)COc1cccc2ccccc12` (stereo not shown) [Propanolol], in series [3] (dog, read-out: Papp (cell batch quality control)), the Papp stood at 15 ×10⁻⁶ cm/s.
On to `CNC(=C[N+](=O)[O-])NCCSCc1ccc(CN(C)C)o1` [Ranitidine], for which, in series [4], the Papp A→B at 2 h is 0.0514 ×10⁻⁶ cm/s and the basolateral-to-apical permeability (Papp B→A) at 2 h is 4.35 ×10⁻⁶ cm/s.
The matching figures for `CC(=O)CC(c1ccccc1)c1c(O)c2ccccc2oc1=O` (stereo not shown) [Warfarin]: 21.5 ×10⁻⁶ cm/s and 32.3 ×10⁻⁶ cm/s.

In general, IC50 refers to the point on the concentration scale where inhibition reaches its midpoint. By Papp A→B is commonly meant the apparent permeability from the apical to the basolateral side of a cell layer. As usually defined, the Papp B→A is the apparent permeability from the basolateral to the apical side of a cell layer. What is called Papp is the rate of passage across a membrane or cell layer, normalised by area and donor concentration.
